# Test results as given in patent publication US8785470B2, “Heterocyclic compounds and uses thereof” (Infinity Pharmaceuticals, Inc., priority 2011, dated 2014).
# Where two headings read alike, the source gives them in different places.
# Columns and labels:
# PI3Kα = molecular target: T1, PI3Kα (Homo sapiens, UniProt P42336); assay: PI3-Kinase HTRF assay, PI3Kα; assay type: biochemical; settings: bins Greater than 10 μM and Greater than 1 μM to 10 μM; 10 μM ATP, PIP2 at 10 μM; read-out: IC50 P13Kα
# T1 construct: purchased Millipore Corporation 14-602-K
# From the text: (§1) A PI3-Kinase HTRF® assay kit (cat No. 33-016) purchased from Millipore Corporation was used to screen compounds provided herein. This assay used specific, high affinity binding of the GRPI pleckstrin homology (PH) domain to PIP3, the product of a Class 1A or 1B PI3 Kinase acting on its physiological substrate PIP2. During the detection phase of the assay, a complex was generated between the GST-tagged PH domain and biotinylated short chain PIP3. The biotinylated PIP3 and the GST-tagged PH domain recruited fluorophores (Streptavidin-Allophycocyanin and Europium-labeled anti-GST respectively) to form the fluorescence resonance energy transfer (FRET) architecture, generating a stable time-resolved FRET signal. The FRET complex was disrupted in a competitive manner by non-biotinylated PIP3, a product formed in the PI3 Kinase assay.
# (§2) PI3 Kinase α, β, γ and δ activity was assayed using the PI3 Kinase HTRF® assay kit (catalogue No. 33-016) purchased from Millipore Corporation. Purified recombinant PI3Kα (catalogue No. 14-602-K), PI3Kβ (catalogue No. 14-603-K), PI3Kγ (catalogue No. 14-558-K) and PI3Kδ (catalogue No. 14-604-K) were obtained from Millipore Corporation. Purified recombinant PI3K enzyme was used to catalyze the phosphorylation of phosphatidylinositol 4,5-bisphosphate (PIP2 at 10 μM) to phosphatidylinositol 3,4,5-trisphosphate (PIP3) in the presence of 10 μM ATP. The assay was carried out in 384-well format and detected using a Perkin Elmer EnVision Xcite Multilabel Reader. Emission ratios were converted into percent inhibitions and imported into GraphPad Prism software. The concentration necessary to achieve inhibition of enzyme activity by 50% (IC50) was calculated using concentrations ranging from 20 μM to 0.1 nM (12-point curve). IC50 values were determined using a nonlinear regression model available in GraphPad Prism 5. […]
# Balb/c splenic B cells = assay: B cell activation and proliferation assay; assay type: cell-based; settings: Mus musculus, read-out: B cell proliferation EC50
# Description: The ability of one or more subject compounds to inhibit B cell activation and proliferation is determined according to standard procedures known in the art. For example, an in vitro cellular proliferation assay is established that measures the metabolic activity of live cells. The assay is performed in a 96 well microtiter plate using Alamar Blue reduction. Balb/c splenic B cells are purified over a Ficoll-Paque™ PLUS gradient followed by magnetic cell separation using a MACS B cell Isolation Kit (Miletenyi). Cells are plated in 90 μl at 50.000 cells/well in B Cell Media (RPMI+10% FBS+Penn/Strep+50 μME5 mM HEPES). A compound provided herein is diluted in B Cell Media and added in a 10 μl volume. Plates are incubated for 30 min at 37° C. and 5% CO2 (0.2% DMSO final concentration). A 50 μl B cell stimulation cocktail is then added containing either 10 μg/ml LPS or 5 μg/ml F(ab′)2 Donkey anti-mouse IgM plus 2 ng/ml recombinant mouse IL4 in B Cell Media. Plates are incubated for 72 hours at 37° C. and 5% CO2. A volume of 15 μL of Alamar Blue reagent is added to each well and plates are incubated for 5 hours at 37° C. and 5% CO2. Alamar Blue fluoresce is read at 560Ex/590Em, and IC50 or EC50 values are calculated using GraphPad Prism 5.
# PI3Kβ = molecular target: T2, PI3Kβ (Homo sapiens, UniProt P42338); assay: PI3-Kinase HTRF assay, PI3Kβ; assay type: biochemical; settings: bins Greater than 10 μM and Greater than 1 μM to 10 μM; 10 μM ATP, PIP2 at 10 μM
# T2 construct: purchased Millipore Corporation 14-603-K
# From the text: as §1, §2
# [1] = column bins 1 μM to 100 nM (given as 100-1000) and Less than 100 nM
# T1 sequence (P42336 whole entry): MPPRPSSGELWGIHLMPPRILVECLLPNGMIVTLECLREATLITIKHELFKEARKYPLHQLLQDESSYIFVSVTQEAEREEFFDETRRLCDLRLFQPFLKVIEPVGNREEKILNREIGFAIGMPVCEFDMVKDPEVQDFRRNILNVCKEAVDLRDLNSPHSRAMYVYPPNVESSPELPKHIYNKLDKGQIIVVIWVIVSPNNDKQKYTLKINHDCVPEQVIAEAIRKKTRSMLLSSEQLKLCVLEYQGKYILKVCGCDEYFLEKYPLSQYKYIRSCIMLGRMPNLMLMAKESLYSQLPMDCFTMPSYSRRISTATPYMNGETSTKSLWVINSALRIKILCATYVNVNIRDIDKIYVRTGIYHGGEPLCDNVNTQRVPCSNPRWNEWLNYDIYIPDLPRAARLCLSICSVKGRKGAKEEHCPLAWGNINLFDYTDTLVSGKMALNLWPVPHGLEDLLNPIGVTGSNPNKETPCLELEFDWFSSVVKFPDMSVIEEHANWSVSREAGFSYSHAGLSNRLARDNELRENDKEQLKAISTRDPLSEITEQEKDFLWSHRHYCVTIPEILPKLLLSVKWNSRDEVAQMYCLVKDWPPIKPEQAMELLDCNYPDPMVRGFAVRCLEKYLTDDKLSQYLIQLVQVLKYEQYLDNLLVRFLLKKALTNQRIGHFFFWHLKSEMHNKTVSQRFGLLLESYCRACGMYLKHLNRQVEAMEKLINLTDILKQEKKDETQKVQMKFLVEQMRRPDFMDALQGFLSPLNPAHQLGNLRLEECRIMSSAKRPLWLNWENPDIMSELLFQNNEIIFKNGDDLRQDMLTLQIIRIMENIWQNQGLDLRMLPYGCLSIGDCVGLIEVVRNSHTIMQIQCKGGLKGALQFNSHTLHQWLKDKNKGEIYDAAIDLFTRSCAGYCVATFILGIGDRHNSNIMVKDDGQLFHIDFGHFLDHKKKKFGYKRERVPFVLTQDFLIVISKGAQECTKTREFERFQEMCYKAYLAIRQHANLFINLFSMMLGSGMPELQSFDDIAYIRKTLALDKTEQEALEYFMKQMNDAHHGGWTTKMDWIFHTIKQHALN
# T1 sequence (P27986 whole entry partner): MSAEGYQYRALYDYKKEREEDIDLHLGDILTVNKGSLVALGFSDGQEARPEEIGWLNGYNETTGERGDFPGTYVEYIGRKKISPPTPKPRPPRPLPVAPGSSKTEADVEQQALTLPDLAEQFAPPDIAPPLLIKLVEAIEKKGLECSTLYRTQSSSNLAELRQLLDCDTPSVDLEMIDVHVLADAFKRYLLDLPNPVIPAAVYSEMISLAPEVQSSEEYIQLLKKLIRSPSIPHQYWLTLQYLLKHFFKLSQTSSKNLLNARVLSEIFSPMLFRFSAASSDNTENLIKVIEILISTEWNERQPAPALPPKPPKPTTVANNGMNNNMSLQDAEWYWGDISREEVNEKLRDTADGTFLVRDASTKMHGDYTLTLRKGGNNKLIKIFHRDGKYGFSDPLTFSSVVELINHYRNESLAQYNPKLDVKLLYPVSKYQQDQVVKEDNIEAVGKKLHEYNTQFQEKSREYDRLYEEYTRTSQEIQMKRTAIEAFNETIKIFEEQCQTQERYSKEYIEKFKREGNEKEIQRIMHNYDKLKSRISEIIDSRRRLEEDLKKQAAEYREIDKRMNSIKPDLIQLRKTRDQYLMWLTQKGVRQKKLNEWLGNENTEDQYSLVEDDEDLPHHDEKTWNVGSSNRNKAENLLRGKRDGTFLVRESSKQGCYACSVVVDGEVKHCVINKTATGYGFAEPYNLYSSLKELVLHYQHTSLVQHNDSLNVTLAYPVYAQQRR
# T2 sequence (P42338 whole entry): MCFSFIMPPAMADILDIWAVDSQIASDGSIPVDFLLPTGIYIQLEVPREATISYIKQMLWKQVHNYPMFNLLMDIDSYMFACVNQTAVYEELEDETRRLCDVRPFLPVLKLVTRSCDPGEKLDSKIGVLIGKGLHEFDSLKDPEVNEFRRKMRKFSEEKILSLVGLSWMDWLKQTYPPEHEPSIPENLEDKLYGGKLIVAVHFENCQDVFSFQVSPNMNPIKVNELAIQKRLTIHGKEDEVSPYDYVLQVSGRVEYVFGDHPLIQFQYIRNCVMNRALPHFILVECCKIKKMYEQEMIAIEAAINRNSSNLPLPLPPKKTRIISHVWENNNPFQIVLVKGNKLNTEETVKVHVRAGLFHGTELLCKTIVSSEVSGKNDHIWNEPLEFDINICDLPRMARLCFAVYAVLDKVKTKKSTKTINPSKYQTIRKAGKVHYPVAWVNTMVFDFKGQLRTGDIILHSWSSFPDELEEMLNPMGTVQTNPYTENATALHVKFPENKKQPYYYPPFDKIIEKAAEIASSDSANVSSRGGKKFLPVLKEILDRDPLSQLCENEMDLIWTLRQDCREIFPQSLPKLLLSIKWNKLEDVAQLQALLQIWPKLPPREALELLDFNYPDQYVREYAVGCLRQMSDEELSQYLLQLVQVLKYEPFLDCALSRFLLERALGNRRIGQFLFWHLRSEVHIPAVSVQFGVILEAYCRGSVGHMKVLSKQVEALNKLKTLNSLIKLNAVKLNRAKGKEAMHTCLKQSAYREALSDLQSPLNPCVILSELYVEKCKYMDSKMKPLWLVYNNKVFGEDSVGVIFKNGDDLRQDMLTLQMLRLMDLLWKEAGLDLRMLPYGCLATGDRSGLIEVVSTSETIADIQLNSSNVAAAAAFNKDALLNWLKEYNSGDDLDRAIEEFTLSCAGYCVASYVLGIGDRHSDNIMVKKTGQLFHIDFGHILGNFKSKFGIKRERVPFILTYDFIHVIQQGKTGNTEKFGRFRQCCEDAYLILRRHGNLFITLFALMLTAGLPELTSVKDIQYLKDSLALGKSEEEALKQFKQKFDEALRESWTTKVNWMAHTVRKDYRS
# T2 sequence (P27986 whole entry partner): as the sequence (P27986 whole entry partner) above
Compound,IC50 (PI3Kα) [µM],IC50 (PI3Kβ) [µM],EC50 (Balb/c splenic B cells; [1]) [µM],EC50 (Balb/c splenic B cells) [µM]
C[C@H](Nc1nc(N)ncc1C#N)c1cc2cccc(-c3ccc(=O)n(C)c3)c2c(=O)n1-c1ccccc1 [Compound 183],1 to 10,1 to 10,< 0.1,
C[C@H](Nc1nc(N)ncc1C#N)c1cc2cccc(-c3ccc(Cl)cc3)c2c(=O)n1-c1ccccc1 [Compound 32],1 to 10,1 to 10,,
C[C@H](Nc1nc(N)ncc1C#N)c1cc2cccc(Cl)c2c(=O)n1CC(C)(C)C [Compound 246],,1 to 10,0.1 to 1,
C[C@H](Nc1nc(N)ncc1C#N)c1cc2cccc(-c3ccc(=O)n(CC4CC4)c3)c2c(=O)n1-c1ccccc1 [Compound 232],1 to 10,1 to 10,< 0.1,
COc1cncc(-c2cccc3cc([C@H](C)Nc4nc(N)ncc4C#N)n(-c4cccc(F)c4)c(=O)c23)c1 [Compound 27],,1 to 10,< 0.1,
"COc1cncc(-c2cccc3cc([C@H](C)Nc4nc(N)ncc4C(N)=O)n(-c4ccccc4)c(=O)c23)c1 [Compound 10, 2-amino-4-((S)-1-(8-(5-methoxypyridin-3-yl)-1-oxo-2-phenyl-1,2-dihydroisoquinolin-3-yl)ethylamino)pyrimidine-5-carboxamide]",,1 to 10,< 0.1,
C[C@H](Nc1nc(N)ncc1C#N)c1cc2ccccc2c(=O)n1-c1ccccc1 [Compound 125],1 to 10,1 to 10,< 0.1,
C[C@H](Nc1nc(N)ncc1C#N)c1cc2cccc(-c3c[nH]nn3)c2c(=O)n1-c1ccccc1 [Compound 196],1 to 10,1 to 10,< 0.1,
COc1ncc(-c2cccc3cc([C@H](C)Nc4nc(N)ncc4C#N)n(C4CC4)c(=O)c23)cn1 [Compound 105],1 to 10,1 to 10,< 0.1,
CC(C)n1cc(-c2cccc3cc([C@H](C)Nc4nc(N)ncc4C#N)n(-c4ccccc4)c(=O)c23)ccc1=O [Compound 234],1 to 10,1 to 10,< 0.1,
C[C@H](Nc1nc(N)ncc1C#N)c1cc2cccc(Cl)c2c(=O)n1C1CCCCC1 [Compound 300],1 to 10,1 to 10,< 0.1,
COc1cc(-c2cccc3cc([C@H](C)Nc4nc(N)ncc4C#N)n(-c4cccc(F)c4)c(=O)c23)ccn1 [Compound 28],,1 to 10,< 0.1,
COc1cc(-c2cccc3nc([C@H](C)Nc4nc(N)ncc4C#N)n(-c4ccccc4)c(=O)c23)ccn1 [Compound 116],1 to 10,1 to 10,,< 0.1
C[C@H](Nc1nc(N)ncc1C#N)c1cc2cccc(-c3ccc4c(c3)OCO4)c2c(=O)n1-c1ccccc1 [Compound 94],1 to 10,1 to 10,< 0.1,
COc1cc(-c2cccc3cc([C@H](C)Nc4nc(N)ncc4C#N)n(-c4ccccc4)c(=O)c23)cnc1C [Compound 100],,1 to 10,< 0.1,
COc1cc(-c2cccc3cc([C@H](C)Nc4nc(N)ncc4C#N)n(-c4ccccc4)c(=O)c23)cnc1OC [Compound 192],,1 to 10,< 0.1,

# The next lines start with results.
IC50 (PI3Kα) [µM],IC50 (PI3Kβ) [µM],Compound,EC50 (Balb/c splenic B cells; [1]) [µM],EC50 (Balb/c splenic B cells) [µM]
1 to 10,1 to 10,C[C@H](Nc1nc(N)ncc1C#N)c1cc2cccc(-c3cnoc3)c2c(=O)n1-c1ccccc1 [Compound 74],< 0.1,
1 to 10,1 to 10,C[C@H](Nc1nc(N)ncc1C#N)c1cc2cccc(-c3ccnc(N)c3)c2c(=O)n1-c1ccccc1 [Compound 187],< 0.1,
1 to 10,1 to 10,Cc1ncc(-c2cccc3cc([C@H](C)Nc4nc(N)ncc4C#N)n(-c4ccccc4)c(=O)c23)s1 [Compound 68],,
1 to 10,1 to 10,C[C@H](Nc1nc(N)ncc1C#N)c1cc2cccc(-c3cncc(S(C)(=O)=O)c3)c2c(=O)n1-c1ccccc1 [Compound 189],< 0.1,
1 to 10,1 to 10,C[C@H](Nc1nc(N)ncc1-c1nccs1)c1cc2cccc(Cl)c2c(=O)n1-c1ccccc1 [Compound 224],< 0.1,
1 to 10,1 to 10,C[C@H](Nc1nc(N)ncc1C#N)c1cc2cccc(-c3ccnc(NS(C)(=O)=O)c3)c2c(=O)n1-c1ccccc1 [Compound 443],< 0.1,
1 to 10,1 to 10,C[C@H](Nc1nc(N)ncc1C#N)c1cc2cccc(-c3cncc(F)c3)c2c(=O)n1-c1ccccc1 [Compound 98],< 0.1,
1 to 10,1 to 10,C[C@H](Nc1nc(N)ncc1C#N)c1cc2cccc(C#CCCC(=O)N3CCCC3)c2c(=O)n1-c1ccccc1 [Compound 207],< 0.1,
1 to 10,1 to 10,COc1ccc(-c2cccc3cc([C@H](C)Nc4nc(N)ncc4C#N)n(-c4ccccc4)c(=O)c23)cn1 [Compound 35],,
1 to 10,1 to 10,C[C@H](Nc1nc(N)ncc1C#N)c1cc2cccc(-c3cccc(C#N)c3)c2c(=O)n1-c1ccccc1 [Compound 44],< 0.1,
1 to 10,1 to 10,CCn1cc(-c2cccc3cc([C@H](C)Nc4nc(N)ncc4C#N)n(-c4ccccc4)c(=O)c23)ccc1=O [Compound 230],< 0.1,
,1 to 10,C[C@H](Nc1nc(N)ncc1-c1cccs1)c1cc2cccc(Cl)c2c(=O)n1-c1ccccc1 [Compound 367],< 0.1,
1 to 10,1 to 10,Cc1cc(-c2cccc3nc([C@H](C)Nc4nc(N)ncc4C#N)n(-c4ccccc4)c(=O)c23)ccn1 [Compound 62],< 0.1,
1 to 10,1 to 10,"C[C@H](Nc1nc(N)ncc1C#N)c1cc2cccc(-c3cncc(O)c3)c2c(=O)n1-c1ccccc1 [Compound 13, 2-amino-4-((S)-1-(8-(5-hydroxypyridin-3-yl)-1-oxo-2-phenyl-1,2-dihydroisoquinolin-3-yl)ethylamino)pyrimidine-5-carbonitrile]",< 0.1,
1 to 10,1 to 10,COc1ncc(-c2cccc3cc([C@H](C)Nc4nc(N)ncc4C#N)n(-c4ccccc4)c(=O)c23)s1 [Compound 70],,
,1 to 10,C[C@H](Nc1nc(N)ncc1C#N)c1cc2cccc(-c3ccc(=O)n(C4CCCC4)c3)c2c(=O)n1-c1ccccc1 [Compound 233],< 0.1,
1 to 10,1 to 10,C[C@H](Nc1nc(N)ncc1C#N)c1cc2cccc(-c3cccc(S(N)(=O)=O)c3)c2c(=O)n1-c1ccccc1 [Compound 102],< 0.1,
,1 to 10,C[C@H](Nc1nc(N)ncc1C#N)c1cc2cccc(-c3ccnnc3)c2c(=O)n1-c1cccc(F)c1 [Compound 30],< 0.1,
1 to 10,1 to 10,COc1ccc(-c2cccc3cc([C@H](C)Nc4nc(N)ncc4C#N)n(-c4ccccc4)c(=O)c23)cc1 [Compound 38],,
1 to 10,1 to 10,C[C@H](Nc1nc(N)ncc1C#N)c1cc2cccc(-c3cccc(NS(C)(=O)=O)c3)c2c(=O)n1-c1ccccc1 [Compound 126],< 0.1,
,1 to 10,COc1cc(-c2cccc3cc([C@H](C)Nc4nc(N)ncc4-c4cnc(OC)s4)n(-c4ccccc4)c(=O)c23)ccn1 [Compound 140],< 0.1,
,1 to 10,Cc1cccc2cc([C@H](C)Nc3nc(N)ncc3C(F)(F)F)n(-c3cccc(F)c3)c(=O)c12 [Compound 16],< 0.1,
,1 to 10,C[C@H](Nc1nc(N)ncc1C#N)c1cc2cccc(-c3cnc4ccccc4c3)c2c(=O)n1-c1cccc(F)c1 [Compound 23],< 0.1,
